Assay results published in PubChem BioAssay AID602186 (Broad Institute, 2012).
Calls of active or inactive are those of the source.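 How the source made its calls: active means compounds reducing C. glabrata growth on glycerol with a fitted half-effect dose within twice the top tested dose; inconclusive means flat curve with moderate growth loss, or an unreliable fit; inactive means the rest.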

Tested on: Candida glabrata growth in glycerol, OD600, 48 h
Test: C. glabrata growth inhibition on glycerol, dose response, glycerol medium, OD600, dry powder (AID 602186)
Details: not given

Structure (SMILES) | AC50
Oc1c(C(c2ccccc2Cl)N2CCCCC2)ccc2cccnc12 (centres undefined) | 9060 nM
Cc1ccc(C(=O)Nc2nc(-c3ccccn3)cs2)cc1 | 3280 nM
CN1CCN(C(c2ccc(C(F)(F)F)cc2)c2ccc3cccnc3c2O)CC1 (centres undefined) | 2960 nM
O=C(Nc1nc(-c2ccccn2)cs1)c1ccccc1 | 11500 nM
O=C(NNC(=S)Nc1ccc(Cl)c(Cl)c1)c1ccccn1 | 119 nM
O=C(Nc1nc(-c2ccccn2)cs1)c1ccc(Br)s1 | 1200 nM
O=C(Nc1nnc(-c2ccc3c(c2)CCCC3)o1)c1ccccc1 | 10300 nM
CCCC(=O)NC(c1cccs1)c1cc(Cl)c2cccnc2c1O (centres undefined) | 2140 nM
C/C(=N\NC(=O)c1cc2ccccc2cc1O)c1ccccn1 | 8890 nM
Oc1c(CN2CCc3ccccc3C2)cc(Cl)c2cccnc12 | 13600 nM
Oc1c(C(c2ccc(Cl)cc2)N2CCCC2)ccc2cccnc12 (centres undefined) | 13400 nM
CCOC(=O)N1C(=O)C2(CCCCC2)N(c2ccc(C)cc2)C1=S | 141 nM
C=CCNC(=S)N/N=C(\C)c1ccccn1 | 508 nM
O=C(Nc1nc(-c2ccccn2)cs1)c1ccc(Cl)s1 | 1380 nM
O=C(Oc1c(Cl)cc(Cl)c2cccnc12)c1ccco1 | 617 nM
Cc1ccc(-c2nc3c(Cl)cc(Cl)cc3c(=O)n2O)cc1 | 1390 nM

Tested on: not listed separately
Test: as above
Details: Candida glabrata growth in glycerol, OD600, 48 h; at 19.5 µM (top of the series)

Structure (SMILES) | activity change, negative = inhibition
COc1ccc(-c2nnc(NC(=O)c3ccc(S(=O)(=O)N4CCCc5ccccc54)cc3)o2)cc1 | -21.8% (inactive)
Cc1ccc(C(=O)Nc2nnc(-c3ccccc3)o2)cc1C | 5.05% (inactive)
NC(=O)c1cccc(C(=O)Nc2nc(-c3ccc4c(c3)CCCC4)cs2)c1 | 9.1% (inactive)
O=C(Nc1nc(-c2ccccc2)cs1)c1ccc(Br)s1 | -6.9% (inactive)
O=C(Nc1nnc(-c2ccc3c(c2)CCCC3)o1)c1ccc(Cl)cc1Cl | -18.1% (inactive)
O=C(Nc1nc(-c2ccc3c(c2)CCCC3)cs1)c1ccccc1 | 25.4% (inactive)
Cc1cc(C)n(-c2nc3ccccc3c(=O)n2OCC#N)n1 | -19.2% (inactive)

Same assay, conditions: Candida glabrata growth in glycerol, OD600, 48 h; at 23.5 µM (top of the series)

Structure (SMILES) | activity change, negative = inhibition
Oc1c(CN2CCN(c3ccccc3)CC2)cc(Cl)c2cccnc12 | -34.4% (inactive)
